{"source": "patent US12295396B2", "about": "“Antagonists of T2R54 and compositions and uses thereof” (Firmenich Incorporated, priority 2018, dated 2025)", "key": {"T2R64": {"target": "T1, T2R64 (Homo sapiens, UniProt P59538)", "T1 sequence (P59538 1-309)": "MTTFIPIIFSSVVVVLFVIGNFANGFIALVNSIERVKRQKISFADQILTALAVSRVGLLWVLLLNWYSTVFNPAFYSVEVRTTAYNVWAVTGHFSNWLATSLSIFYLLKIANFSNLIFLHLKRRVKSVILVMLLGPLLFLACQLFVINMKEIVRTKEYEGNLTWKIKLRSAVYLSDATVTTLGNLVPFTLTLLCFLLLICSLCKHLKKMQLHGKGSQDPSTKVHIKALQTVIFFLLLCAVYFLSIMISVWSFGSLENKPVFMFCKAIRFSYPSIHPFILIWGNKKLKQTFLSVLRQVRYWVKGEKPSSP", "test": "Antagonist activity against a panel of bitter taste receptors (receptor based assay): T2R64", "assay_type": "cell-based", "from_the_text": "(§1) Compounds described in this application show potent bitter antagonist effect on T2R54 in receptor based assays. […] Antagonist activity of 1-(6-methyl-2-phenylpyrimidin-4-yl)piperidine-4-carboxamide against a panel of bitter taste receptors is shown in Table 10, with the identity of each T2R as indicated in the left column, and the percentage activity remaining is indicated in the far right column."}, "T2R75": {"target": "T2, T2R75 (Homo sapiens, UniProt P59540)", "T2 sequence (P59540 1-309)": "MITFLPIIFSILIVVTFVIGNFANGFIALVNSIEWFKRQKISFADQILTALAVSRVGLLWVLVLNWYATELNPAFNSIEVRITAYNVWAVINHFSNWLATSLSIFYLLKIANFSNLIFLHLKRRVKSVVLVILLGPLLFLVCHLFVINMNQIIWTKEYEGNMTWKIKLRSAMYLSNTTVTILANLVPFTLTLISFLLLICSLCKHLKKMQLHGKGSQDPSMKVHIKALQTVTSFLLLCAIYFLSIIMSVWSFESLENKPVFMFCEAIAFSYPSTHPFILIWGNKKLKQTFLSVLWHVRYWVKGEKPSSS", "test": "Antagonist activity against a panel of bitter taste receptors (receptor based assay): T2R75", "assay_type": "cell-based", "from_the_text": "as §1"}, "hT2R54": {"target": "T3, hT2R54 (Homo sapiens, UniProt P59534)", "T3 construct": "expressed in transfected cells; it overexpresses a promiscuous G protein", "T3 sequence (P59534 1-338)": "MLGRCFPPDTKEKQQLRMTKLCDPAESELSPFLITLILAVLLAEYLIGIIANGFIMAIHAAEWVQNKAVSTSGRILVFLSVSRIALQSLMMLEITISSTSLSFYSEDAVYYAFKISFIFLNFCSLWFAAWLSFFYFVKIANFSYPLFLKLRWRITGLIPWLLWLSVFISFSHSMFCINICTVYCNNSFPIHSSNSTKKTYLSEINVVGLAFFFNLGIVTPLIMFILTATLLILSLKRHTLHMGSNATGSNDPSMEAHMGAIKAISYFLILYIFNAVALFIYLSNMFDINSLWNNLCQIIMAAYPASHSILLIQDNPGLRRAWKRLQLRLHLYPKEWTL", "test": "Cell-based assay for measuring hT2R54 inhibition (FLIPR calcium, Fluo4AM, acetaminophen as bitter agonist)", "conditions": "Table 2; cells stably expressing hT2R54 and a promiscuous G protein; read-out: hT2R54 IC50", "method_in_brief": "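The readout was FLIPR calcium (Fluo4AM, 10 s baseline, 3 min post-addition) in cells stably carrying hT2R54 plus a promiscuous G protein, with host cells lacking hT2R54 as counter-control. Acetaminophen concentration series were tested with and without set test-compound levels. Half-maximal block of the agonist response gave the EC50/IC50.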"}, "T2R61": {"target": "T4, T2R61 (Homo sapiens, UniProt P59537)", "T4 sequence (P59537 1-309)": "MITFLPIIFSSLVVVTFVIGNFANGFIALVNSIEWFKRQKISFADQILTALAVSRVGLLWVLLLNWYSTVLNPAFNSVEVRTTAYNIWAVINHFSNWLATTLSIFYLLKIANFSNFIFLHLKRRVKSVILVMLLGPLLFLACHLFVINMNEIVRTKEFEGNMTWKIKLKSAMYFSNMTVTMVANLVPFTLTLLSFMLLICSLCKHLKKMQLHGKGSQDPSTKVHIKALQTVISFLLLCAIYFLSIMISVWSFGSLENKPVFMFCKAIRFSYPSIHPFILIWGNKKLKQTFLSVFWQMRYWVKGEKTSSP", "test": "Antagonist activity against a panel of bitter taste receptors (receptor based assay): T2R61", "assay_type": "cell-based", "from_the_text": "as §1"}}}
{"smiles": "CC(=O)c1cc2c(cc1NC(=O)CN1CCN(C(=O)CC(C)C)CC1)OCO2", "note": "[Cmpd 1, N-(6-Acetylbenzo[d][1,3]dioxol-5-yl)-2-(4-(3-methylbutanoyl)piperazin-1-yl)acetamide]", "values": [{"measurement": "bitter blocking effect on T2R64", "setting": "T2R64", "result": "significant bitter blocking effect"}, {"measurement": "bitter blocking effect on T2R75", "setting": "T2R75", "result": "significant bitter blocking effect"}, {"measurement": "IC50", "setting": "hT2R54", "result": 16, "unit": "nM"}, {"measurement": "bitter blocking effect on T2R61", "setting": "T2R61", "result": "significant bitter blocking effect"}]}
